Laboratory results published in the METLIN SMRT retention time set (Domingo-Almenara et al. 2019).

Assay: gradient 5% acetonitrile 3 min, to 50% in 2 min, to 85% in 15 min, held 3 min, 100 µL/min
Conditions: column: Zorbax Extend-C18 2.1 x 50 mm; eluents: water / acetonitrile, 0.1% formic acid
Method in brief: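 In both positive and negative ionization mode, a quadrupole time-of-flight mass spectrometer coupled to HPLC analyzed pure standards run in mixtures of ~100 molecules. The Zorbax Extend-C18 column (2.1 × 50 mm, 1.8 μm) was operated at 100 μL/min with water and acetonitrile, each containing 0.1% formic acid. The dead volume was 40 μL and the dwell volume 900 μL. Retention time came from adduct peaks that were computationally picked and individually inspected by hand.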

SMILES | RP-LC retention time [s]
COc1ccc(Nc2nc(-c3nnn(-c4ccc(F)cc4F)c3C)ns2)cc1OC | 900
Cc1cc(F)ccc1NC(=O)C1CCCN1S(C)(=O)=O (stereo not drawn) | 701
CCc1cc(N2CCN(C(=O)c3cc(OC)cc(OC)c3)CC2)nc2nncn12 | 601
O=C(Nc1cc(-c2ccccn2)no1)c1ccccc1F | 774
Cn1c(C(=O)N(Cc2ccccc2)Cc2ccccc2)cc2c(=O)n3ccccc3nc21 | 1040
O=C(NC1CCN(C(=O)N2C[C@H]3C[C@H](C2)[C@H]2CCCC(=O)N2C3)CC1)c1ccc2ccccc2n1 | 714
Cn1ncc2c3ccccc3n(CCCC(=O)NCCc3ccco3)c2c1=O | 775
CC(C)Cc1cc(-c2nnc3sc(COc4ccccc4Cl)nn23)n[nH]1 | 941
Cc1nc(-c2cccs2)c(CCC(=O)Nc2nccs2)s1 | 752
Cc1cccc(Oc2cc(N3CCC(C(=O)NCCCOC(C)C)CC3)ncn2)c1C | 883
OC(COCC(c1ccccc1)c1ccccc1)Cn1cnc2ccccc21 (stereo not drawn) | 639
CCc1ccc(-c2noc(Cn3nc(-c4ccc5c(c4)OCO5)ccc3=O)n2)cc1 | 1200
COc1ccccc1Cc1noc(C2CN(S(=O)(=O)c3c(C)noc3C)C2)n1 | 897
O=C(Cc1c[nH]c2ccccc12)N1CCC(NS(=O)(=O)c2ccc(Cl)cc2)CC1 | 829
Cc1ccccc1-c1noc(Cn2c(=O)n(Cc3ccc4c(c3)OCO4)c(=O)c3sccc32)n1 | 1110
COc1ccc(-c2noc(Cc3nnc(-c4cccc(Cl)c4)o3)n2)cc1OC | 973
CCN(CC)C(=O)c1cnc2snc(C)c2c1N1CCC(C(=O)Nc2cc(C)c(Cl)cc2OC)CC1 | 1070
CN1CCCN(C(=O)C2CN(S(=O)(=O)c3cccnc3)CC23CCCCC3)CC1 (stereo not drawn) | 605
Cc1ccc(NC(=O)NCCn2c(-c3ccncc3)nc3cccnc32)c(Cl)c1 | 652
Cc1ccc(-c2noc(Cn3ncn4nc(-c5ccc(F)cc5)cc4c3=O)n2)cc1 | 817

SMILES | RP-LC retention time [s]
CCC(C)(C)NS(=O)(=O)c1ccc(-c2c(C)noc2C)cc1 | 939
Cc1ccccc1NC(=O)Cc1csc2nc(-c3cccc(Br)c3)cn12 | 948
CCCCn1c(=O)c2ccccc2n(Cc2nc(-c3ccccc3Cl)no2)c1=O | 1160
CSc1ccc(CNC(=O)c2ccc3nc(CCc4ccc(NC(C)=O)cc4)[nH]c3c2)cc1 | 663
COC(=O)c1ccccc1Nc1c(-c2cccc(O)c2)nc2cnccn12 | 792
Cc1cc(OCC(O)Cn2c(C3CC(=O)N(C(C)(C)C)C3)nc3ccccc32)cc(C)c1Cl (stereo not drawn) | 878
O=C(c1cn(-c2cc(N3CCSCC3)ncn2)cn1)N1CCC(Cc2ccccc2)CC1 | 1090
O=C(c1cc(F)ccc1F)N1CCc2nc(-c3ccc(Cl)cc3)ncc2C1 | 1090
C=CCN(CC=C)c1nc(-c2ccc(Cl)cc2)nc2ccccc12 | 936
O=C(NCc1ccncc1)c1ccc(-c2ccsc2)nc1 | 589
O=S(=O)(c1ccc2nc(N3CCN(c4ccccn4)CC3)ccc2c1)N1CCCCC1 | 649
COc1cccc(S(=O)(=O)N2CCC(c3noc(-c4ccccn4)n3)C2)c1 (stereo not drawn) | 774
COc1ccc(-c2nnc(-c3cc(S(=O)(=O)NCc4cccnc4)ccc3Cl)o2)cc1 | 696
O=S(=O)(Cc1cccc(Cl)c1)N1CCc2nc(-c3ccc(F)cc3)ncc2C1 | 1110
CCOC(=O)c1cc(S(=O)(=O)N2CC3CC(C2)c2cccc(=O)n2C3)cn1C (stereo not drawn) | 704
COCc1nc(C2CCCN(C(=O)NC3CCCC3)C2)no1 (stereo not drawn) | 743
CC(=O)Nc1nc(-c2ccc3c(c2)NC(=O)CO3)cs1 | 633
Cn1cc(S(=O)(=O)N2CCCCC2)cc1C(=O)N1CCCCC1 | 833
COc1cc(CN2CCC[C@H]2c2nc(C3CCOCC3)n[nH]2)cc(OC)c1 | 593

More lines, now with the values ahead:

RP-LC retention time [s] | SMILES
593 | Cc1ccc2c(Nc3ccc(C)c(C)c3)c(C(=O)N3CCOCC3)cnc2n1
832 | Cn1cccc1C(=O)N1CCN(c2cc(-c3ccc(Cl)cc3)[nH]n2)CC1
802 | COCCCn1cnc2c(-c3ccccc3)cn(CC(=O)NCc3ccco3)c2c1=O
910 | CCOC(=O)c1cccc(NC(=O)Cn2ccc3ccc(-c4nnc(CC)o4)cc32)c1
575 | CCN1CCN(c2ncc3c(n2)CCN(Cc2ccc(Cl)c(F)c2)C3)CC1
864 | CNC(=O)N1CCCC(c2cccc(C(=O)N3CCN(c4ccc(Cl)cc4)CC3)c2)C1 (stereo not drawn)
901 | COc1ccc(-c2cc3nn(CC(=O)Nc4ccccc4F)c(=O)n3c(C)n2)cc1
642 | Cc1ccc(S(=O)(=O)N2CCc3nc[nH]c3C2)cc1Cl
870 | O=C(Nc1ccc2c(c1)OCCO2)c1noc2c1CCCC2
797 | CCCCC(=O)N1CCc2c(c(C(=O)N3CCCC(C(=O)Nc4ccccc4C)C3)nn2C)C1 (stereo not drawn)
866 | CN(Cc1ccccc1)C(=O)c1cc2n(n1)CC(C)(C(=O)NC1CCCCCC1)N(C)C2=O (stereo not drawn)
574 | O=C(NC1CC1)c1ccc(N2CCC(NCc3ccc(Cl)cc3)C2)nc1 (stereo not drawn)
578 | Cc1nc2ccn(Cc3ccco3)c(=O)c2cc1C(=O)NCCCN1CCOCC1
939 | COc1ccc(-c2c(C(=O)Nc3ccc(C(C)=O)cc3)nc3ccccn23)cc1
808 | COc1ccc(-c2noc(C3CCCN3C(=O)c3ccnn3C)n2)cc1 (stereo not drawn)
736 | COc1ccc(OCc2noc(CNC(=O)C3CC(=O)N(c4ccccc4)C3)n2)cc1 (stereo not drawn)
811 | C=CCNC(=O)c1nc(C(=O)N2CCc3ccccc3C2)cs1
761 | O=C(c1ccc(OCC2CCCN2C(=O)COc2ccc(F)cc2)cc1)N1CCCC1 (stereo not drawn)
645 | O=C(c1cccc2c1CCN2C(=O)C1CC1)N1CCOCC1
813 | Cc1ccc(NC(=O)N2C[C@@H](F)C[C@H]2C(=O)N2CCCCC2)cc1Cl
590 | O=C(COc1ccc2ccccc2c1)NCC1CCN(C2CCCC2)CC1
585 | CC(=O)c1ccc(S(=O)(=O)N2CCc3nc[nH]c3C2)cc1
905 | COCCN1C(=O)c2ccccc2C(C(=O)NCc2ccccc2Cl)C12CCCC2 (stereo not drawn)
872 | Cc1nn(CC(=O)N2CCC(C)CC2)c(=O)c2nc(-c3ccccc3)sc12
729 | COc1ccc(NC(=O)N2C[C@@H]3C[C@H]2C[C@@H]3NC(=O)c2cccs2)cc1F

RP-LC retention time [s] | SMILES
952 | Cc1cc(NC(=O)C(C)C2CCN(C(=O)Nc3ccc(Cl)cc3)CC2)ccc1F (stereo not drawn)
851 | Cc1cc(C2CCCN2C(=O)Cc2ccc(F)cc2Cl)on1 (stereo not drawn)
1380 | CCn1c(=O)c(N2CCCC(C(=O)N3CCN(c4cc(C)ccc4C)CC3)C2)nc2ccccc21 (stereo not drawn)
589 | Cc1ccnc(NS(=O)(=O)c2ccc(NC(=O)c3cn(C)nc3C)cc2)n1
696 | CN(CCCNC(=O)C1CCCN(S(=O)(=O)c2ccc3c(ccn3C)c2)C1)Cc1ccccc1 (stereo not drawn)
836 | Cc1ccc(-n2cc3c(N4CCCC(C(=O)NCc5ccc(C(C)C)cc5)C4)ncnc3n2)cc1 (stereo not drawn)
613 | CCOC(=O)CNC(=O)Nc1ncc(-c2ccccc2)n1C
641 | CCC(=O)N1CCc2c(sc3ncnc(N4CCCC4)c23)C1
548 | O=C(CSc1ccc(-c2cccnc2)nn1)NCC1CCCO1 (stereo not drawn)
620 | O=C(CCC(=O)N1CC2CCCN2c2ccccc21)NCCN1CCOCC1 (stereo not drawn)
697 | Cc1cccc2nnc(N3CCC(C(=O)Nc4cccc(F)c4)CC3)n12
706 | COc1ccc(C(=O)Nc2ccc3c(c2)Sc2ncccc2C(=O)N3C)c(OC)c1
779 | CCN(CC)C(=O)c1ccc2c(c1)nnn2CCNC(=O)Nc1ccc(Br)cc1
703 | Cc1ccc2c(=O)c(C(=O)N3CCCC3)cn(CC(=O)Nc3cc(F)ccc3F)c2n1
808 | O=C(Cn1nc2n(c(=O)c1=O)CCN2c1ccccc1)Nc1ccc(OC(F)(F)F)cc1
614 | Cc1ccc2cc(CCC(=O)NCCCN3CCc4ccccc4C3)c(=O)[nH]c2c1
967 | Cc1cc2nn(CC(=O)Nc3ccccc3F)c(=O)n2c(Nc2ccc(F)cc2)n1
1040 | O=C(NCCc1ccccc1)c1nnc(-c2ccc(S(=O)(=O)N3CCCCC3)cc2)o1
636 | CCCNC(=O)C1CCN(c2ccc(SCC(=O)Nc3ccccc3C)nn2)CC1
757 | COc1cccc(CC(=O)N2CCCC2c2cc(C)on2)c1 (stereo not drawn)
714 | Cc1cccc(CNC(=O)c2ccc(CN3CCN(C(C)C)C(=O)C3=O)cc2)c1
655 | CCOc1ccc(NC(=O)Cn2nc3n(c2=O)CCCC3)cc1
877 | COc1ccc(-c2nnc(COc3ccc(NC(=O)c4ccc(Cl)nc4)cc3)o2)cc1
775 | Cc1sc2ccn(Cc3ccc(F)cc3)c(=O)c2c1C(=O)NCC1CCCO1 (stereo not drawn)
